Reference: patent publication US20260335263A1, “USE OF TROPIC ACID AND DERIVATIVE THEREOF IN PREPARATION OF DRUG FOR TREATING PSORIASIS” (GUANGDONG PHARMACEUTICAL UNIVERSITY, priority 2022, published 2026)

Columns and labels:
[1] = system: Psoriasis in Mice Induced by Imiquimod; experiment: Histomorphological observation (PASI scoring and day 7 photographs of back skin lesions) of psoriasis in mice induced by imiquimod; assay type: in vivo, male Balb/c mice; conditions: for skin lesion scores (overall score), high-dose: vs high-dose tropic acid, compound III P<0.01, compound IV P<0.05; for skin erythema score, low-dose / skin lesion scores (overall score), low-dose: low-dose 3 mg/kg·d by gavage; for skin erythema score, low-dose: compared with low-dose tropic acid, P<0.01; for skin lesion scores (overall score), low-dose: vs low-dose tropic acid; for therapeutic effect on back skin injury induced by imiquimod: overall conclusion, mouse model of psoriasis; for therapeutic effects compared with tropic acid: summary statement
From the text: 110 male Balb/c mice (8-10 weeks, 20-25 g each) were anesthetized by intraperitoneal injection of 10% chloral hydrate, and approximately 2 cm×4 cm of back hair was shaved off. The mice were randomly divided into 11 groups, with 10 mice in each group, including a blank control group, a model group, a positive drug group, a high-dose tropic acid group (A), a low-dose tropic acid group (B), a high-dose 4-hydroxy-α-(hydroxymethyl)phenylacetic acid group (C), a low-dose 4-hydroxy-α-(hydroxymethyl)phenylacetic acid group (D), a high-dose 3,4-dihydroxy-α-(hydroxymethyl)phenylacetic acid group (E), a low-dose 3,4-dihydroxy-α-(hydroxymethyl)phenylacetic acid group (F), a high-dose 3,4,5-trihydroxy-α-(hydroxymethyl)phenylacetic acid group (G), and a low-dose 3,4,5-trihydroxy-α-(hydroxymethyl)phenylacetic acid group (H) of. Except for the blank control group, which received no treatment, all other groups were treated with 50 mg of 5% imiquimod cream daily to prepare a psoriasis mouse model. All groups were administered simultaneously, with dosing twice daily, and the grouping and dosing regimen are detailed in Table 1. The treatment was continued for 6 days. On the 7th day, the skin lesions of the mice were photographed and recorded, after which the mice were euthanized and their back skin was taken for further use.
Histomorphological observation: Starting from the first day of modeling, the degree of erythema, scales, and inflammatory infiltration thickening on the back of mice were scored daily according to the PASI scoring criteria. The PAIS scoring criteria were as follows: 0-none; 1-mild; 2-moderate; 3-severe cases; 4-extremely severe. The more severe the degree of skin damage, the higher the score. The three points were summed to obtain the total PASI score. The average score of each group of mice were then plotted to create a trend line to observe the changes in skin lesions of each group of mice. Digital photography was used to record the skin lesions on the back of the mice in each group on the 7th day for observation and comparison.

[2] = Solubility observed in structural identification; assay type: physicochemical
[3] = system: Psoriasis in Mice Induced by Imiquimod; experiment: Histopathological examination (HE staining, epidermal thickness) of back skin of mice with imiquimod-induced psoriasis; assay type: in vivo, male Balb/c mice; conditions: day 7, HE staining, compared with the model group
From the text: 110 male Balb/c mice (8-10 weeks, 20-25 g each) were anesthetized by intraperitoneal injection of 10% chloral hydrate, and approximately 2 cm×4 cm of back hair was shaved off. […] On the 7th day, the skin lesions of the mice were photographed and recorded, after which the mice were euthanized and their back skin was taken for further use.
Histopathological examination: On the 7th day of modeling, the mice were euthanized, and the back skin of each group of mice was cut and fixed in 4% paraformaldehyde for 24 hours, embedded in paraffin, and sliced into 4 μm sections. HE staining, sealing, and observation of histopathological changes under microscope were performed, and the epidermal thickness was measured using the scale function of the cellSens standard.

[4] = high-dose 6 mg/kg·d by gavage, after 6 days, compared with high-dose tropic acid, P<0.05

| Compound | degree of inflammatory infiltration and thickening of the skin [1, 4] | degree of scale reduction [1, 4] | skin erythema score, high-dose [1, 4] | skin lesion scores (overall score), high-dose ([1]; high-dose 6 mg/kg·d by gavage) | skin erythema score, low-dose ([1]; after 6 days) | skin lesion scores (overall score), low-dose ([1]; P<0.05) | therapeutic effect on back skin injury induced by imiquimod [1] | therapeutic effects compared with tropic acid [1] | solubility in methanol ([2]; methanol) | solubility in water ([2]; water) | incomplete skin keratinization [3] | thickness of the stratum spinosum ([3]; positive drug = dexamethasone 5 mg/kg·d by gavage) |
| --- | --- | --- | --- | --- | --- | --- | --- | --- | --- | --- | --- | --- |
| O=C(O)C(CO)c1ccc(O)c(O)c1 (stereo not drawn) [compound III, 3,4-dihydroxy-α-(hydroxymethyl)phenylacetic acid] | significant decrease | superior | significantly reduced | superior | significantly reduced | superior | best therapeutic effect | more significant therapeutic effects than tropic acid | easily soluble | easily soluble | – | – |
| O=C(O)C(CO)c1cc(O)c(O)c(O)c1 (stereo not drawn) [compound IV, 3,4,5-trihydroxy-α-(hydroxymethyl)phenylacetic acid] | significant decrease | superior | – | superior | significantly reduced | superior | best therapeutic effect | more significant therapeutic effects than tropic acid | – | – | – | – |
| C[C@@H]1C[C@H]2[C@@H]3CCC4=CC(=O)C=C[C@]4(C)[C@@]3(F)[C@@H](O)C[C@]2(C)[C@@]1(O)C(=O)CO [positive drug, dexamethasone] | – | – | – | – | – | – | – | – | – | – | significantly improvements | significantly reduced |
